Literature values as cited in patent US5695952A, “Method for producing [Leu^13 ]motilin” (Kyowa Hakko Kogyo Co., Ltd., priority 1986, dated 1997).

Settings: M. Fujino et al., Chem. Pharm. Bull., 26, 101 (1978)

## CC[C@H](C)[C@H](NC(=O)[C@@H]1CCCN1C(=O)[C@@H](NC(=O)[C@@H](N)Cc1ccccc1)C(C)C)C(=O)N[C@@H](Cc1ccccc1)C(=O)N[C@H](C(=O)N[C@@H](Cc1ccc(O)cc1)C(=O)NCC(=O)N[C@@H](CCC(=O)O)C(=O)N[C@@H](CC(C)C)C(=O)N[C@@H](CCC(N)=O)C(=O)N[C@@H](CCCNC(=N)N)C(=O)N[C@@H](CCSC)C(=O)N[C@@H](CCC(N)=O)C(=O)N[C@@H](CCC(=O)O)C(=O)N[C@@H](CCCCN)C(=O)N[C@@H](CCC(=O)O)C(=O)N[C@@H](CCCNC(=N)N)C(=O)N[C@@H](CC(N)=O)C(=O)N[C@@H](CCCCN)C(=O)NCC(=O)N[C@@H](CCC(N)=O)C(=O)O)[C@@H](C)O [motilin]
  motilin activity after oxidation of Met to the sulfoxide form: decreased motilin activity
